Measured values published in PMC9403976, “Elucidating the path to Plasmodium prolyl-tRNA synthetase inhibitors that overcome halofuginone resistance” (Nature Communications, 2022).
“And” between values parts separate entries of the source, which are not always exact repeats. Equal values may be shown once. Read-outs that look alike come from different tables or passages of the source.

Tests used:
HsProRS = HsProRS (Homo sapiens, UniProt P07814); assay: TR-FRET ligand displacement assay with tracer MAT379 (CoraFluor-1-Halo and anti-His6 antibody formats); type: binding; set-up: made in house; host or cells: E. coli SoluBL-21; conditions: for TR-FRET dose-response, normalized signal (SI Fig 11): individual replicates
P. falciparum Dd2-2D4 = assay: P. falciparum asexual blood stage (ABS) growth assay, SYBR Green, 72 h, wild-type parasites; type: cell-based, Plasmodium falciparum; conditions: for ABS growth dose-response, normalized signal (Replicates 1-3): Dd2-2D4; for EC50: Plasmodium falciparum, DD2, SI Fig 16b, values on -log scale, read-out: ABS - Dd2-2D4 (converted)
[1] = system: halofuginone-induced P. falciparum (elevated proline homeostasis); assay: P. falciparum ABS growth assay, SYBR Green, 72 h, halofuginone-induced parasites; type: cell-based, Plasmodium falciparum
Excerpt: Parasites were maintained under standard culture conditions as described previously[56],[57]. […] The P. falciparum Dd2 cell lines used in this study (Dd2-2D4, halofuginone-induced, and HFGR-I) have previously undergone whole genome sequencing in our labs. They were also routinely assayed and EC50 values determined using the ABS growth assay (see below) with a panel of standard antimalarial compounds, including halofuginone which has differential activity for the three Dd2 lines used in these experiments. Data were cross-referenced for consistency with literature reported values and data previously acquired in the lab.
This assay was performed as previously described. In short, P. falciparum erythrocytic-stage parasites at 1% parasitemia and 1% hematocrit in RPMI + 0.5% Albumax were seeded at 40 μL/well in 384-well plates with test compounds in triplicate, dose-response format with 10 μM dihydroartemisinin as a kill-control and blank (no compound) wells as a growth-control. […] After 72 h, growth was quantified by measuring fluorescence (Molecular Devices SpectraMax iD5) following SYBR Green 1 staining. Data were analyzed in Excel and plotted in PRISM (V. 8.4.3–9.1.0, GraphPad).

PfcProRS = biological target: T1, PfcProRS (Plasmodium falciparum, UniProt Q8I5R7); type: binding; conditions: for dose-response signal (normalized), SI Fig 8: single replicates; for Normalized response, dose-response replicates (SI Fig 14): replicates 1-3
T1 construct: made in house; host or cells: E. coli SoluBL-21
T1 sequence (Q8I5R7 249-746): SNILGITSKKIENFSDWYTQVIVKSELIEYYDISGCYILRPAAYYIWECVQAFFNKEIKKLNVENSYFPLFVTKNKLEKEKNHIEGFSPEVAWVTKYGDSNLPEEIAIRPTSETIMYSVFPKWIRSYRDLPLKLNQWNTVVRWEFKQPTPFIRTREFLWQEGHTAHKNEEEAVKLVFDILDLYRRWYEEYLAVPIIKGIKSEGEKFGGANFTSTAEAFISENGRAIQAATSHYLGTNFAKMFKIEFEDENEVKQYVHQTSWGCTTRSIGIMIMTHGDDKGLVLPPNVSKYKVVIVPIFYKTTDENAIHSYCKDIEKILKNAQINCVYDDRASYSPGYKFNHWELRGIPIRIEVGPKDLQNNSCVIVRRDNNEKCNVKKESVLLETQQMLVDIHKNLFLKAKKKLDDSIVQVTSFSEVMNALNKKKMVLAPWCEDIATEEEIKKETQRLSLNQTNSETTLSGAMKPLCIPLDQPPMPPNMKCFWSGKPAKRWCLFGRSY

Chain of HsProRS (P07814 996-1512): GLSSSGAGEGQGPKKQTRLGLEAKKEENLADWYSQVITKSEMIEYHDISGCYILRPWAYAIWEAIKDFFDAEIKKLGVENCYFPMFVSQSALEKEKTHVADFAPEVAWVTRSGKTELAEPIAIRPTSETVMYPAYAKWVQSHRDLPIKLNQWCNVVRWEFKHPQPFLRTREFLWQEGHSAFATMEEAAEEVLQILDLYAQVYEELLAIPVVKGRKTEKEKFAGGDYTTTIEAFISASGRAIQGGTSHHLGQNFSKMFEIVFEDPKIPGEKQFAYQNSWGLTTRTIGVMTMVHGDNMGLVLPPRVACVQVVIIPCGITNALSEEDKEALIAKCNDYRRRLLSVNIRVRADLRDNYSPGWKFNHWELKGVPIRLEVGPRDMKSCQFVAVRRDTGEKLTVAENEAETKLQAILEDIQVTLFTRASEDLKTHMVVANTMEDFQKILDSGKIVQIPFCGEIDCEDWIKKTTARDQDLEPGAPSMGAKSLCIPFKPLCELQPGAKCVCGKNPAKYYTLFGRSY

Compound: O=C(NC1Cc2ccccc2C1)c1nccnc1NC(=O)C1CCC1 [compound 20]
- Kd (HsProRS; HsProRS (KD [nM]) mean, no added proline/ATP (-)): 738 nM
- Kd (HsProRS; HsProRS - best Kd, SI Fig 16a, values on -log scale): 13.2 nM
- normalized TR-FRET ligand displacement signal, dose-response replicates (SI Fig 6) (HsProRS; Log[inhibitor] (M) -5.000): 1.86E-01 and 1.74E-01 and 2.39E-01
- TR-FRET dose-response, normalized signal (SI Fig 11) (HsProRS; Log[inhibitor] (M) -5.000): 1.04E-01 and 5.16E-02 and 1.08E-01
- normalized TR-FRET ligand displacement signal, dose-response replicates (SI Fig 6) (HsProRS; Log[inhibitor] (M) -5.301): 4.97E-01 and 4.61E-01 and 4.31E-01
- TR-FRET dose-response, normalized signal (SI Fig 11) (HsProRS; Log[inhibitor] (M) -5.301): 1.41E-01 and 1.42E-01 and 1.77E-01
- normalized TR-FRET ligand displacement signal, dose-response replicates (SI Fig 6) (HsProRS; Log[inhibitor] (M) -5.601): 6.11E-01 and 7.58E-01 and 7.79E-01
- TR-FRET dose-response, normalized signal (SI Fig 11) (HsProRS; Log[inhibitor] (M) -5.601): 3.04E-01 and 2.78E-01 and 2.50E-01
- normalized TR-FRET ligand displacement signal, dose-response replicates (SI Fig 6) (HsProRS; Log[inhibitor] (M) -5.904): 8.89E-01 and 8.92E-01 and 8.45E-01
- TR-FRET dose-response, normalized signal (SI Fig 11) (HsProRS; Log[inhibitor] (M) -5.904): 4.25E-01 and 3.97E-01 and 4.79E-01
- normalized TR-FRET ligand displacement signal, dose-response replicates (SI Fig 6) (HsProRS; Log[inhibitor] (M) -6.208): 9.16E-01 and 8.68E-01 and 9.52E-01
- TR-FRET dose-response, normalized signal (SI Fig 11) (HsProRS; Log[inhibitor] (M) -6.208): 6.09E-01 and 5.97E-01 and 5.95E-01
- normalized TR-FRET ligand displacement signal, dose-response replicates (SI Fig 6) (HsProRS; Log[inhibitor] (M) -6.509): 1.03E+00 and 8.94E-01 and 8.53E-01
- TR-FRET dose-response, normalized signal (SI Fig 11) (HsProRS; Log[inhibitor] (M) -6.509): 6.97E-01 and 7.43E-01 and 6.91E-01
- normalized TR-FRET ligand displacement signal, dose-response replicates (SI Fig 6) (HsProRS; Log[inhibitor] (M) -6.796): 1.03E+00 (2×) and 1.11E+00
- TR-FRET dose-response, normalized signal (SI Fig 11) (HsProRS; Log[inhibitor] (M) -6.796): 8.43E-01 and 8.17E-01 and 8.38E-01
- normalized TR-FRET ligand displacement signal, dose-response replicates (SI Fig 6) (HsProRS; Log[inhibitor] (M) -7.108): 9.80E-01 and 1.08E+00 and 1.02E+00
- TR-FRET dose-response, normalized signal (SI Fig 11) (HsProRS; Log[inhibitor] (M) -7.108): 8.72E-01 and 8.51E-01 and 8.01E-01
- normalized TR-FRET ligand displacement signal, dose-response replicates (SI Fig 6) (HsProRS; Log[inhibitor] (M) -7.409): 9.83E-01 and 1.12E+00 and 9.82E-01
- TR-FRET dose-response, normalized signal (SI Fig 11) (HsProRS; Log[inhibitor] (M) -7.409): 9.24E-01 and 8.62E-01 and 9.39E-01
- normalized TR-FRET ligand displacement signal, dose-response replicates (SI Fig 6) (HsProRS; Log[inhibitor] (M) -7.710): 9.31E-01 and 9.49E-01 and 8.80E-01
- TR-FRET dose-response, normalized signal (SI Fig 11) (HsProRS; Log[inhibitor] (M) -7.710): 9.14E-01 and 9.13E-01 and 9.09E-01
- normalized TR-FRET ligand displacement signal, dose-response replicates (SI Fig 6) (HsProRS; Log[inhibitor] (M) -8.000): 1.05E+00 and 9.80E-01 and 9.83E-01
- TR-FRET dose-response, normalized signal (SI Fig 11) (HsProRS; Log[inhibitor] (M) -8.000): 9.16E-01 and 9.29E-01 and 9.47E-01
- normalized TR-FRET ligand displacement signal, dose-response replicates (SI Fig 6) (HsProRS; Log[inhibitor] (M) -8.301): 9.29E-01 and 1.08E+00 and 8.52E-01
- TR-FRET dose-response, normalized signal (SI Fig 11) (HsProRS; Log[inhibitor] (M) -8.301): 9.16E-01 and 9.69E-01 and 9.32E-01
- normalized TR-FRET ligand displacement signal, dose-response replicates (SI Fig 6) (HsProRS; Log[inhibitor] (M) -8.602): 9.34E-01 and 1.03E+00 and 1.00E+00
- TR-FRET dose-response, normalized signal (SI Fig 11) (HsProRS; Log[inhibitor] (M) -8.602): 9.06E-01 and 9.54E-01 and 9.32E-01
- normalized TR-FRET ligand displacement signal, dose-response replicates (SI Fig 6) (HsProRS; Log[inhibitor] (M) -9.000): 1.01E+00 and 9.37E-01 and 8.87E-01
- TR-FRET dose-response, normalized signal (SI Fig 11) (HsProRS; Log[inhibitor] (M) -9.000): 9.11E-01 and 9.90E-01 and 9.12E-01
- normalized TR-FRET ligand displacement signal, dose-response replicates (SI Fig 6) (HsProRS; Log[inhibitor] (M) -9.301): 9.68E-01 and 9.96E-01 and 9.12E-01
- TR-FRET dose-response, normalized signal (SI Fig 11) (HsProRS; Log[inhibitor] (M) -9.301): 9.37E-01 and 9.39E-01 and 8.38E-01
- ABS growth dose-response, normalized signal (Replicates 1-3) (P. falciparum Dd2-2D4; Log[inhibitor] (M) -5.000): 1
- ABS growth dose-response, normalized signal (Replicates 1-3) (P. falciparum Dd2-2D4; Log[inhibitor] (M) -5.301): 7
- EC50 (P. falciparum Dd2-2D4): 3.74 µM
- dose-response value, Replicates 1-3 (SI Fig 2e) ([1]; Log[inhibitor] (M) -8.699): 102
- dose-response value, Replicates 1-3 (SI Fig 2e) ([1]; Log[inhibitor] (M) -9.000): 101
- dose-response signal (normalized), SI Fig 8 (PfcProRS; Log[inhibitor] (M) -5.000): -3.34E-02 and -2.16E-02 and 4.43E-02
- dose-response signal (normalized), SI Fig 8 (PfcProRS; Log[inhibitor] (M) -5.301): 9.72E-02 and 2.14E-03 and 9.57E-02
- dose-response signal (normalized), SI Fig 8 (PfcProRS; Log[inhibitor] (M) -5.601): 1.29E-01 and 1.68E-01 and 1.72E-01
- dose-response signal (normalized), SI Fig 8 (PfcProRS; Log[inhibitor] (M) -5.904): 2.39E-01 and 2.05E-01 and 1.23E-01
- dose-response signal (normalized), SI Fig 8 (PfcProRS; Log[inhibitor] (M) -6.208): 3.45E-01 and 2.90E-01 and 4.22E-01
- dose-response signal (normalized), SI Fig 8 (PfcProRS; Log[inhibitor] (M) -6.509): 6.21E-01 and 6.16E-01 and 6.02E-01
- dose-response signal (normalized), SI Fig 8 (PfcProRS; Log[inhibitor] (M) -6.796): 8.63E-01 and 8.36E-01 and 8.81E-01
- dose-response signal (normalized), SI Fig 8 (PfcProRS; Log[inhibitor] (M) -7.108): 1.04E+00 and 9.78E-01 and 9.41E-01
- dose-response signal (normalized), SI Fig 8 (PfcProRS; Log[inhibitor] (M) -7.409): 1.10E+00 and 1.00E+00 and 1.03E+00
- dose-response signal (normalized), SI Fig 8 (PfcProRS; Log[inhibitor] (M) -7.710): 1.05E+00 and 1.02E+00 (2×)
- dose-response signal (normalized), SI Fig 8 (PfcProRS; Log[inhibitor] (M) -8.000): 1.14E+00 and 1.06E+00 and 1.15E+00
- dose-response signal (normalized), SI Fig 8 (PfcProRS; Log[inhibitor] (M) -8.301): 1.07E+00 and 1.03E+00 and 9.53E-01
- dose-response signal (normalized), SI Fig 8 (PfcProRS; Log[inhibitor] (M) -8.602): 1.04E+00 and 1.07E+00 and 9.70E-01
- dose-response signal (normalized), SI Fig 8 (PfcProRS; Log[inhibitor] (M) -9.000): 1.05E+00 and 1.02E+00 and 1.08E+00
- dose-response signal (normalized), SI Fig 8 (PfcProRS; Log[inhibitor] (M) -9.301): 1.08E+00 and 9.05E-01 and 9.37E-01

Compound: O=C(NC1Cc2ccccc2C1)c1nccnc1NS(=O)(=O)C1CCCCC1 [compound 50]
- IC50 (HsProRS): > 10 µM
- HsProRS % signal at 10 μM, + 100 μM proline (HsProRS; + 100 μM proline, 10 μM): 84.5%
- HsProRS % signal at 10 μM (HsProRS; no added proline/ATP (-), 10 μM): 87.7%
- IC50 (HsProRS; read-out: HsProRS IC50 + 100 μM proline, + 100 μM proline): > 10 µM
- EC50 (P. falciparum Dd2-2D4): 13 µM
- Normalized response, dose-response replicates (SI Fig 14) (PfcProRS; Log[inhibitor] (M) -5.000): 8.68E-01 and 9.74E-01 and 9.94E-01
- Normalized response, dose-response replicates (SI Fig 14) (PfcProRS; Log[inhibitor] (M) -5.301): 9.83E-01 and 9.53E-01 and 9.64E-01
- Normalized response, dose-response replicates (SI Fig 14) (PfcProRS; Log[inhibitor] (M) -5.601): 9.71E-01 and 9.90E-01 and 1.02E+00
- Normalized response, dose-response replicates (SI Fig 14) (PfcProRS; Log[inhibitor] (M) -5.904): 1.05E+00 and 1.15E+00 and 1.14E+00
- Normalized response, dose-response replicates (SI Fig 14) (PfcProRS; Log[inhibitor] (M) -6.208): 1.03E+00 and 9.74E-01 and 1.18E+00
- Normalized response, dose-response replicates (SI Fig 14) (PfcProRS; Log[inhibitor] (M) -6.509): 1.04E+00 and 9.48E-01 and 1.06E+00
- Normalized response, dose-response replicates (SI Fig 14) (PfcProRS; Log[inhibitor] (M) -6.796): 9.91E-01 and 1.03E+00 and 9.32E-01
- Normalized response, dose-response replicates (SI Fig 14) (PfcProRS; Log[inhibitor] (M) -7.108): 9.63E-01 and 9.98E-01 and 1.15E+00
- Normalized response, dose-response replicates (SI Fig 14) (PfcProRS; Log[inhibitor] (M) -7.409): 9.71E-01 and 8.81E-01 and 1.12E+00
- Normalized response, dose-response replicates (SI Fig 14) (PfcProRS; Log[inhibitor] (M) -7.710): 9.98E-01 and 1.04E+00 and 1.13E+00
- Normalized response, dose-response replicates (SI Fig 14) (PfcProRS; Log[inhibitor] (M) -8.000): 1.13E+00 and 9.44E-01 and 9.76E-01
- Normalized response, dose-response replicates (SI Fig 14) (PfcProRS; Log[inhibitor] (M) -8.301): 8.99E-01 and 9.55E-01 and 8.96E-01
- Normalized response, dose-response replicates (SI Fig 14) (PfcProRS; Log[inhibitor] (M) -8.602): 9.78E-01 and 9.85E-01 and 1.02E+00
- Normalized response, dose-response replicates (SI Fig 14) (PfcProRS; Log[inhibitor] (M) -9.000): 9.55E-01 (2×) and 1.01E+00
- Normalized response, dose-response replicates (SI Fig 14) (PfcProRS; Log[inhibitor] (M) -9.301): 9.48E-01 and 9.83E-01 and 9.54E-01
